Results reported in US20060069132A1, “Azolecarboxamide herbicides” (priority 2004, published 2006).
Like-named read-outs stand apart in the source and are kept apart here.

Key:
large crabgrass = assay: Test B pre-/postemergence herbicide test; assay type: in vivo, Digitaria sanguinalis
Method in brief: (§1)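 Flooded paddy rice and barnyardgrass were treated at the 2-leaf stage; upland plantings received compound either on sown seed or on 1- to 4-leaf seedlings. All were kept 13–15 days in a greenhouse and scored visually, 0–100, relative to untreated plants.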

cocklebur = assay: Test B pre-/postemergence herbicide test; assay type: in vivo, Xanthium strumarium
Method in brief: (§2)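 Response was scored visually 13 to 15 days after treatment against untreated greenhouse controls, 0 meaning no effect and 100 complete control. Formulations (solvent mixture plus surfactant) went onto soil after planting, onto foliage of 1- to 4-leaf plants, and onto 2-leaf plants in a flooded paddy set including rice and barnyardgrass.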

velvetleaf = assay: Test B pre-/postemergence herbicide test; assay type: in vivo, Abutilon theophrasti
Method in brief: as §1

rice = assay: Test B flooded paddy test; assay type: in vivo, Oryza sativa; details: 1000 g ai/ha, visual rating, scale 0 to 100 (0 no effect, 100 complete control), 13 to 15 days
Method in brief: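 After treating 2-leaf paddy plants or 2–18 cm postemergence plants (1 to 4 leaves) with formulated chemical, researchers kept them in a greenhouse for 13–15 days. Effects were judged visually versus controls: 0 indicates none, 100 total control.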

barnyardgrass [1] = assay: Test B pre-/postemergence herbicide test; assay type: in vivo, Echinochloa crus-galli
Method in brief: as §2

[2] = test system: small flower umbrella sedge; assay: Test B flooded paddy test; assay type: in vivo, Cyperus difformis; details: 1000 g ai/ha, visual rating, scale 0 to 100 (0 no effect, 100 complete control), 13 to 15 days
Method in brief: (§3)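 Visual control ratings, 0–100 versus untreated controls, taken after 13 to 15 days in the greenhouse. Blackgrass received a postemergence spray at the 1- to 4-leaf stage (2–18 cm); ducksalad, umbrella sedge and barnyardgrass were flooded-paddy treated at 2 leaves.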

giant foxtail = assay: Test B pre-/postemergence herbicide test; assay type: in vivo, Setaria faberi
Method in brief: as §1

ducksalad = assay: Test B flooded paddy test; assay type: in vivo, Heteranthera limosa; details: 1000 g ai/ha, visual rating, scale 0 to 100 (0 no effect, 100 complete control), 13 to 15 days
Method in brief: as §3

Surinam grass = assay: Test B pre-/postemergence herbicide test; assay type: in vivo, Urochloa decumbens
Method in brief: as §1

wheat = assay: Test B postemergence herbicide test; assay type: in vivo, Triticum aestivum; details: Postemergence, scale 0 (no effect) to 100 (complete control); for Plant response rating, Wheat: 500 g ai/ha, visual rating after 13 to 15 days
Method in brief: (§4)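 Formulated test chemicals went onto postemergence plants measuring 2 to 18 cm, at one to four leaves. For the paddy assay, species had reached two leaves. Scoring took place 13–15 days later by eye, relative to untreated plants, using 0 for no effect up to 100 for full control.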

corn = assay: Test B pre-/postemergence herbicide test; assay type: in vivo, Zea mays
Method in brief: as §1

barnyardgrass [3] = assay: Test B flooded paddy test; assay type: in vivo, Echinochloa crus-galli; details: 1000 g ai/ha, visual rating, scale 0 to 100 (0 no effect, 100 complete control), 13 to 15 days
Method in brief: as §3

pigweed = assay: Test B pre-/postemergence herbicide test; assay type: in vivo, Amaranthus retroflexus
Method in brief: as §1

blackgrass = assay: Test B postemergence herbicide test; assay type: in vivo, Alopecurus myosuroides; details: Postemergence, scale 0 (no effect) to 100 (complete control); for Plant response rating, Blackgrass: 500 g ai/ha, visual rating after 13 to 15 days
Method in brief: as §3

morningglory = assay: Test B pre-/postemergence herbicide test; assay type: in vivo, Ipomoea coccinea; details: for pest or weed control at 500 g/ha: 500 g ai/ha
Method in brief: as §2

wild oat = assay: Test B postemergence herbicide test; assay type: in vivo, Avena fatua; details: Postemergence, scale 0 (no effect) to 100 (complete control); for Plant response rating, Oat, Wild: 500 g ai/ha, visual rating after 13 to 15 days
Method in brief: as §4

[4] = Postemergence, 125 g ai/ha, scale 0 (no effect) to 100 (complete control)
[5] = Postemergence, 500 g ai/ha, visual rating after 13 to 15 days, scale 0 (no effect) to 100 (complete control)
[6] = Preemergence, 500 g ai/ha, scale 0 to 100
[7] = preemergence, 125 g ai/ha, 0 to 100 scale, 0 is no effect, 100 is complete control

For `CCNC(=O)c1ccc(F)c(NC(=O)c2cc(C(C)(C)C)nn2CC)c1` [Compound 2, 3-(1,1-dimethylethyl)-1-ethyl-N-[5-[(ethylamino)carbonyl]-2-fluorophenyl]-1H-pyrazole-5-carboxamide], the pest or weed control at 125 g/ha (large crabgrass; Digitaria sanguinalis, post-emergence, Postemergence, 125 g ai/ha, scale 0 (no effect) to 100 (complete control), read-out: Crabgrass, Large plant response rating) was 20%, the pest or weed control at 500 g/ha (large crabgrass; Digitaria sanguinalis, post-emergence, Postemergence, 500 g ai/ha, visual rating after 13 to 15 days, scale 0 (no effect) to 100 (complete control), read-out: Plant response rating, Crabgrass, Large) was 30% and the pest or weed control at 500 g/ha (large crabgrass; Digitaria sanguinalis, pre-emergence, Preemergence, 500 g ai/ha, scale 0 to 100, read-out: Crabgrass, Large plant response rating) was 100%. For the same compound, the pest or weed control at 125 g/ha (cocklebur; Xanthium strumarium, post-emergence, Postemergence, 125 g ai/ha, scale 0 (no effect) to 100 (complete control), read-out: Cocklebur plant response rating) was 50%, the pest or weed control at 500 g/ha (cocklebur; Xanthium strumarium, post-emergence, Postemergence, 500 g ai/ha, visual rating after 13 to 15 days, scale 0 (no effect) to 100 (complete control), read-out: Plant response rating, Cocklebur) was 80% and the pest or weed control at 500 g/ha (cocklebur; Xanthium strumarium, pre-emergence, Preemergence, 500 g ai/ha, scale 0 to 100, read-out: Cocklebur plant response rating) was 90%. For the same compound, the pest or weed control at 125 g/ha (velvetleaf; Abutilon theophrasti, post-emergence, 336 h, Postemergence, 125 g ai/ha, scale 0 (no effect) to 100 (complete control), read-out: Velvetleaf plant response rating) was 20%, the pest or weed control at 500 g/ha (velvetleaf; Abutilon theophrasti, post-emergence, 336 h, Postemergence, 500 g ai/ha, visual rating after 13 to 15 days, scale 0 (no effect) to 100 (complete control), read-out: Plant response rating, Velvetleaf) was 50% and the pest or weed control at 500 g/ha (velvetleaf; Abutilon theophrasti, pre-emergence, 336 h, Preemergence, 500 g ai/ha, scale 0 to 100, read-out: Velvetleaf plant response rating) was 100%. The plant injury at 1000 g/ha (rice; Oryza sativa, 336 h, read-out: Rice plant response rating) was 70%, the pest or weed control at 125 g/ha (barnyardgrass [1]; Echinochloa crus-galli, post-emergence, Postemergence, 125 g ai/ha, scale 0 (no effect) to 100 (complete control), read-out: Barnyardgrass plant response rating) was 30% and the pest or weed control at 500 g/ha (barnyardgrass [1]; Echinochloa crus-galli, post-emergence, Postemergence, 500 g ai/ha, visual rating after 13 to 15 days, scale 0 (no effect) to 100 (complete control), read-out: Plant response rating, Barnyardgrass) was 70%. It also gave a pest or weed control at 500 g/ha (barnyardgrass [1]; Echinochloa crus-galli, pre-emergence, Preemergence, 500 g ai/ha, scale 0 to 100, read-out: Barnyardgrass plant response rating) of 100%, a pest or weed control at 1000 g/ha ([2]; Cyperus difformis, 336 h, read-out: Sedge, Umbrella plant response rating) of 90% and a pest or weed control at 125 g/ha (giant foxtail; Setaria faberi, post-emergence, 336 h, Postemergence, 125 g ai/ha, scale 0 (no effect) to 100 (complete control), read-out: Foxtail, Giant plant response rating) of 30%. For the same compound, the pest or weed control at 500 g/ha (giant foxtail; Setaria faberi, post-emergence, 336 h, Postemergence, 500 g ai/ha, visual rating after 13 to 15 days, scale 0 (no effect) to 100 (complete control), read-out: Plant response rating, Foxtail, Giant) was 30%, the pest or weed control at 500 g/ha (giant foxtail; Setaria faberi, pre-emergence, 336 h, Preemergence, 500 g ai/ha, scale 0 to 100, read-out: Foxtail, Giant plant response rating) was 100% and the pest or weed control at 1000 g/ha (ducksalad; Heteranthera limosa, 336 h, read-out: Ducksalad plant response rating) was 90%. The pest or weed control at 125 g/ha (Surinam grass; Urochloa decumbens, post-emergence, Postemergence, 125 g ai/ha, scale 0 (no effect) to 100 (complete control), read-out: Surinam Grass plant response rating) was 20%, the pest or weed control at 500 g/ha (Surinam grass; Urochloa decumbens, post-emergence, Postemergence, 500 g ai/ha, visual rating after 13 to 15 days, scale 0 (no effect) to 100 (complete control), read-out: Plant response rating, Surinam Grass) was 50% and the pest or weed control at 500 g/ha (Surinam grass; Urochloa decumbens, pre-emergence, Preemergence, 500 g ai/ha, scale 0 to 100, read-out: Surinam Grass plant response rating) was 100%. For the same compound, the “Plant response rating, Wheat” value (wheat) was 20, the plant injury at 125 g/ha (wheat; Triticum aestivum, post-emergence, 336 h, 125 g ai/ha, read-out: Wheat plant response rating) was 20% and the plant injury at 125 g/ha (corn; Zea mays, post-emergence, Postemergence, 125 g ai/ha, scale 0 (no effect) to 100 (complete control), read-out: Corn plant response rating) was 20%. It also gave a Corn plant response rating (crop injury, 0 = no effect, 100 = complete kill) at 500 g/ha (corn; Zea mays, post-emergence, Postemergence, 500 g ai/ha, visual rating after 13 to 15 days, scale 0 (no effect) to 100 (complete control)) of 20%, a plant injury at 500 g/ha (corn; Zea mays, pre-emergence, Preemergence, 500 g ai/ha, scale 0 to 100, read-out: Corn plant response rating) of 80% and a pest or weed control at 1000 g/ha (barnyardgrass [3]; Echinochloa crus-galli, 336 h, read-out: Barnyardgrass plant response rating) of 90%. It also gave a pest or weed control at 125 g/ha (pigweed; Amaranthus retroflexus, post-emergence, 336 h, Postemergence, 125 g ai/ha, scale 0 (no effect) to 100 (complete control), read-out: Pigweed plant response rating) of 60%, a pest or weed control at 500 g/ha (pigweed; Amaranthus retroflexus, post-emergence, 336 h, Postemergence, 500 g ai/ha, visual rating after 13 to 15 days, scale 0 (no effect) to 100 (complete control), read-out: Plant response rating, Pigweed) of 70% and a pest or weed control at 500 g/ha (pigweed; Amaranthus retroflexus, pre-emergence, 336 h, Preemergence, 500 g ai/ha, scale 0 to 100, read-out: Pigweed plant response rating) of 100%. The pest or weed control at 125 g/ha (blackgrass; Alopecurus myosuroides, post-emergence, 336 h, 125 g ai/ha, read-out: Blackgrass plant response rating) was 10%, the “Plant response rating, Blackgrass” value (blackgrass) was 30 and the pest or weed control at 125 g/ha (morningglory; Ipomoea, post-emergence, 336 h, Postemergence, 125 g ai/ha, scale 0 (no effect) to 100 (complete control), read-out: Morningglory plant response rating) was 30%. The pest or weed control at 500 g/ha (morningglory; Ipomoea, post-emergence, 336 h, Postemergence, visual rating after 13 to 15 days, scale 0 (no effect) to 100 (complete control), read-out: Plant response rating, Morningglory) was 70%, the pest or weed control at 500 g/ha (morningglory; Ipomoea, pre-emergence, 336 h, Preemergence, scale 0 to 100, read-out: Morningglory plant response rating) was 90% and the pest or weed control at 125 g/ha (wild oat; Avena fatua, post-emergence, 336 h, 125 g ai/ha, read-out: Oat, Wild plant response rating) was 20%. The “Plant response rating, Oat, Wild” value (wild oat) was 30.
In the case of `C=Cn1nc(C(C)(C)C)cc1C(=O)Nc1cccc(C(=O)NCC)c1` [Compound 33], the “Crabgrass, Large plant response rating” value (large crabgrass; [4]) is reported as 20, the “Plant response rating, Crabgrass, Large” value (large crabgrass; [5]) is reported as 30 and the “Crabgrass, Large plant response rating” value (large crabgrass; [6]) is reported as 100. For the same compound, the “Cocklebur plant response rating” value (cocklebur; [4]) was 80, the “Plant response rating, Cocklebur” value (cocklebur; [5]) was 100 and the “Cocklebur plant response rating” value (cocklebur; [6]) was 30. The “Plant response rating, Velvetleaf” value (velvetleaf; [5]) was 60, the “Velvetleaf plant response rating” value (velvetleaf; [6]) was 80 and the “Plant response rating, Velvetleaf” value (velvetleaf; [7]) was 40. For the same compound, the “Rice plant response rating” value (rice) was 60, the “Barnyardgrass plant response rating” value (barnyardgrass [1]; [4]) was 20 and the “Plant response rating, Barnyardgrass” value (barnyardgrass [1]; [5]) was 30. The “Barnyardgrass plant response rating” value (barnyardgrass [1]; [6]) was 90, the “Sedge, Umbrella plant response rating” value [2] was 90 and the “Foxtail, Giant plant response rating” value (giant foxtail; [4]) was 30. For the same compound, the “Plant response rating, Foxtail, Giant” value (giant foxtail; [5]) was 30, the “Foxtail, Giant plant response rating” value (giant foxtail; [6]) was 100 and the “Plant response rating, Foxtail, Giant” value (giant foxtail; [7]) was 80. The “Ducksalad plant response rating” value (ducksalad) was 90, the “Plant response rating, Surinam Grass” value (Surinam grass; [5]) was 30 and the “Surinam Grass plant response rating” value (Surinam grass; [6]) was 80. For the same compound, the “Plant response rating, Surinam Grass” value (Surinam grass; [7]) was 30, the “Plant response rating, Wheat” value (wheat) was 30 and the “Corn plant response rating” value (corn; [6]) was 30. For the same compound, the “Barnyardgrass plant response rating” value (barnyardgrass [3]) was 90, the “Plant response rating, Pigweed” value (pigweed; [5]) was 90 and the “Pigweed plant response rating” value (pigweed; [6]) was 100. For the same compound, the “Plant response rating, Pigweed” value (pigweed; [7]) was 100, the “Blackgrass plant response rating” value (blackgrass; 125 g ai/ha) was 20 and the “Plant response rating, Blackgrass” value (blackgrass) was 20. The “Plant response rating, Morningglory” value (morningglory; [7]) was 10, the “Oat, Wild plant response rating” value (wild oat; 125 g ai/ha) was 10 and the “Plant response rating, Oat, Wild” value (wild oat) was 10.
